Test system: hyperglycemic male KK mice
Test: Action in depressing blood glucose (Method 1)
Type: in vivo
Settings: Mus musculus, po, 72 h, compound admixed with powder feed at 0.01% (ca. 10 mg/kg/day) for three days, plasma glucose vs control group, read-out: Rate of hypoglycemic activity (%) (blood glucose depression rate)
Experimental: Action in Depressing Blood Glucose (Method 1)
Each compound, admixed with powder feed F-2 (Funabashi Farm) was administered to hyperglycemic male KK mice each having a body weight of 40 g or more at a rate of 0.01% (ca. 10 mg/kg/day) for three days. Meanwhile, mice of a control group were fed with the powder feed only. Then, a blood sample was collected from the caudal vein of each mouse under no anesthesia and centrifuged. The blood glucose in the plasma thus obtained was determined using Glucoloader F (Product of A & T Co., Ltd.).
The blood glucose depression rate were estimated from the following equation:
Blood glucose depression rate (%)=[(Blood glucose in Control group−Blood glucose in administered group)/Blood glucose in Control group]×100

Structure (SMILES)	inhibition in vivo at 10 mg/kg/day
CCOC(Cc1ccc(OCCNC(=O)c2ccc(-c3ccccn3)cc2)cc1)C(=O)O (centres unmarked) [Example 2, Sodium 2-ethoxy-3-[4-[2-(4-pyridine-2-ylbenzoylamino)ethoxy]phenyl]propionate]	43%
O=C(NCCOc1ccc(CC(CCCc2ccccc2)C(=O)O)cc1)c1ccc(-c2ccccn2)cc1 (centres unmarked) [Example 4, 2-(3-phenylpropyl)-3-[4-[2-(4-pyridine-2-ylbenzoylamino)ethoxy]phenyl]propionic acid]	15%
CC(C)c1ccc(OC(Cc2ccc(OCCNC(=O)c3ccc(-c4ccccn4)cc3)cc2)C(=O)O)cc1 (centres unmarked) [Example 10, 2-(4-isopropylphenoxy)-3-[4-[2-(4-pyridine-2-ylbenzoylamino)ethoxy]phenyl]propionic acid]	64%
CCCCC(Cc1ccc(OCCNC(=O)c2ccc(-c3ccccn3)cc2)cc1)C(=O)O (centres unmarked) [Example 12, 2-butyl-3-[4-[2-(4-pyridine-2-ylbenzoylamino)ethoxy]phenyl]propionic acid]	42%
CC(Cc1ccc(OCCNC(=O)c2ccc(-c3ccccn3)cc2)cc1)(Oc1ccccc1)C(=O)O (centres unmarked) [Example 16, 2-Methyl-2-phenoxy-3-[4-[2-(4-pyridine-2-ylbenzoylamino)ethoxy]phenyl]propionic acid]	64%
CC(C)c1ccc(OC(C)(Cc2ccc(OCCNC(=O)c3ccc(-c4ccccn4)cc3)cc2)C(=O)O)cc1 (centres unmarked) [Example 18, 2-(4-Isopropylphenoxy)-2-methyl-3-[4-[2-(4-pyridine-2-ylbenzoylamino)ethoxy]phenyl]propionic acid]	68%
CCCCC(Cc1ccc(OCCNC(=O)c2ccc(-c3ccccc3)cc2)cc1)C(=O)O (centres unmarked) [Example 22, 3-[4-[2-(Biphenyl-4-carbonylamino)ethoxy]phenyl]-2-butylpropionic acid]	17%
CCCCC(Cc1ccc(OCCNC(=O)c2ccc(-c3ccc(C=O)cc3)cc2)cc1)C(=O)O (centres unmarked) [Example 27, 2-Butyl-3-[4-[2-(4′-formylbiphenyl-4-carbonylamino)ethoxy]phenyl]propionic acid]	35%
CCCCC(Cc1ccc(OCCNC(=O)c2ccc(-c3ccc(CN(C)C)cc3)cc2)cc1)C(=O)O (centres unmarked) [Example 29, 2-Butyl-3-[4-[2-(4′-dimethylaminomethylbiphenyl-4-carbonyl-amino)ethoxy]phenyl]propionic acid]	20%
CCCCC(Cc1ccc(OCCNC(=O)c2ccc(-c3ccc(C(=O)O)cc3)cc2)cc1)C(=O)O (centres unmarked) [Example 30, 2-Butyl-3-[4-[2-(4′-carboxybiphenyl-4-carbonylamino)ethoxy]phenyl]propionic acid]	18%
CCCCC(Cc1ccc(OCCNC(=O)c2ccc(-c3cccc(OC)c3)cc2)cc1)C(=O)O (centres unmarked) [Example 32, 2-Butyl-3-[4-[2-(3′-methoxybiphenyl-4-carbonylamino)ethoxy]phenyl]propionic acid]	21%
CCCCC(Cc1ccc(OCCNC(=O)c2ccc(-c3cccc(O)c3)cc2)cc1)C(=O)O (centres unmarked) [Example 34, 2-Butyl-3-[4-[2-(3′-hydroxybiphenyl-4-carbonylamino)ethoxy]phenyl]propionic acid]	22%
CCCCC(Cc1ccc(OCCNC(=O)c2ccc(-c3ccccc3OC)cc2)cc1)C(=O)O (centres unmarked) [Example 43, 2-Butyl-3-[4-[2-(2′-methoxybiphenyl-4-carbonylamino)ethoxy]phenyl]propionic acid]	20%
CCCCC(Cc1ccc(OCCNC(=O)c2ccc(-c3cc(C)c(O)c(C)c3)cc2)cc1)C(=O)O (centres unmarked) [Example 48, Sodium 2-butyl-3-[4-[2-(4′-hydroxy-3′, 5′-dimethylbiphenyl-4-carbonylamino)ethoxy]phenyl]propionate]	37%
CCCCC(Cc1ccc(OCCNC(=O)c2ccc(OC)nc2)cc1)C(=O)O (centres unmarked) [Example 52, 2-Butyl-3-[4-[2-(2-methoxypyridine-5-carbonylamino)ethoxy]phenyl]propionic acid]	20%
CCCCC(Cc1ccc(OCCCNC(=O)c2ccc(-c3ccccn3)cc2)cc1)C(=O)O (centres unmarked) [Example 70, 2-Butyl-3-[4-[3-(4-pyridine-2-ylbenzoylamino)propoxy]phenyl]propionic acid]	23%
CCCC(Cc1ccc(OCCNC(=O)c2ccc(-c3ccccn3)cc2)cc1)C(=O)O (centres unmarked) [Example 74, 2-Propyl-3-[4-[2-(4-pyridine-2-ylbenzoylamino)ethoxy]phenyl]propionic acid]	60%
O=C(NCCOc1ccc(CC(Oc2ccccc2)C(=O)O)cc1)c1ccc(-c2ccccc2)cc1 (centres unmarked) [Example 76, 3-[4-[2-(Biphenyl-4-carbonylamino)ethoxy]phenyl]-2-phenoxypropionic acid]	50%
O=C(NCCOc1ccc(CC(Oc2ccccc2)C(=O)O)cc1)c1ccc(-c2ccc(F)cc2)cc1 (centres unmarked) [Example 78, 3-[4-[2-(4′-Fluorobiphenyl-4-carbonylamino)ethoxy]phenyl]-2-phenoxypropionic acid]	53%
O=C(NCCOc1ccc(CC(Oc2ccccc2)C(=O)O)cc1)c1ccc(-c2ccc(Cl)cc2)cc1 (centres unmarked) [Example 80, 3-[4-[2-(4′-Chlorobiphenyl-4-carbonylamino)ethoxy]phenyl]-2-phenoxypropionic acid]	50%
O=C(NCCOc1ccc(CC(Oc2ccccc2)C(=O)O)cc1)c1ccc(-c2ccc(C(F)(F)F)cc2)cc1 (centres unmarked) [Example 82, 3-[4-[2-(4′-Trifluoromethylbiphenyl-4-carbonylamino)ethoxy]phenyl]-2-phenoxypropionic acid]	32%
CC(C)c1ccc(OC(Cc2ccc(OCCNC(=O)c3ccc(-c4ccccc4)nc3)cc2)C(=O)O)cc1 (centres unmarked) [Example 97, 2-(4-Isopropylphenoxy)-3-[4-[2-(2-phenylpyridine-5-carbonylamino)ethoxy]phenyl]propionic acid]	66%
COc1ccc(-c2ccc(C(=O)NCCOc3ccc(CC(Oc4ccc(C(C)C)cc4)C(=O)O)cc3)cn2)cc1 (centres unmarked) [Example 99, 2-(4-Isopropylphenoxy)-3-[4-[2-[2-(4-methoxyphenyl)pyridine-5-carbonylamino]ethoxy]phenyl]propionic acid]	57%
CC(C)c1ccc(OC(Cc2ccc(OCCNC(=O)c3ccc(-c4ccc(F)cc4)nc3)cc2)C(=O)O)cc1 (centres unmarked) [Example 101, 3-[4-[2-[2-(4-Fluorophenyl)pyridine-5-carbonylamino]ethoxy]phenyl]-2-(4-isopropylphenoxy)propionic acid]	51%

Same assay, conditions: compound admixed with powder feed at 0.01% (ca. 10 mg/kg/day) for three days, plasma glucose vs control group

Structure (SMILES)	Rate of hypoglycemic activity (%) (blood glucose depression rate)
O=C(NCCOc1ccc(CC(Oc2ccccc2)C(=O)O)cc1)c1ccc(-c2ccccn2)cc1 (centres unmarked) [Example 8, 2-Phenoxy-3-[4-[2-(4-pyridine-2-ylbenzoylamino)ethoxy]phenyl]propioric acid]	22%
CCCCC(Cc1ccc(OCCNC(=O)c2ccc(N(CC)CC)cc2)cc1)C(=O)O (centres unmarked) [Example 62, 2-Butyl-3-[4-[2-(4-N,N-dietylaminobenzoylamino)ethoxy]phenyl]propionic acid]	16%

Source: patent publication US6528525B1, “Amidocarboxylic acid derivatives” (Sankyo Company, Limited, priority 1998, dated 2003)
